Several values for one entry are separate records, joined by “and”; a condition that tells them apart may be missing. Identical values can stand only once. Like-named read-outs stand apart in the source and are kept apart here.
Columns and labels:
eIF4E [1] = target: T1, eIF4E (Homo sapiens, UniProt P06730); experiment: biochemical
Description: (§1) A sensor chip SA (GE Healthcare) is docked into a Biacore 3000 instrument.
(§2) Compound concentration series are injected over the immobilized protein serially in increasing concentration. Interaction models are fitted globally to the experimental traces, enabling determination of Kd or KD (binding affinity; unit: M) and possibly kon (on-rate, calculated from the association phase; unit: M^−1s^−1) and koff (off-rate, calculated from the dissociation phase; unit: s^−1).
(§3) A sensor chip (SAD5001 or SA) was docked into a Biacore 3000 instrument, washed with 50 mM NaOH, 1M NaCl. Protein eIF4E was diluted in running buffer (50 mM HEPES, 150 mM KCl, 10 mM MgCl2, 2 mM TCEP) to ˜1 μM. The diluted protein solution was injected for 300-600 seconds. Typical capture levels were 5000-6000 RU.
(§4) Test compounds were solubilized in ddH2O or DMSO to 10 mM. 100 μM stocks were prepared by 100-fold dilution in running buffer (50 mM HEPES, 150 mM KCl, 10 mM MgCl2). Assay was run with or without 1% DMSO.
(§5) Data were analyzed in GeneData. Curve fit was accepted or rejected by looking at the resulting sensorgrams and steady state fits.
(§6) Assay has been validated using running buffer with and without DMSO. […] Further, newly captured protein stabilizes slowly, leading to negative responses during the dissociation phase for compounds injected over newly captured protein.

eIF4E [2] = target: T1, eIF4E
Description: as §1, §2, §3, §4, §5, §6

eIF4E [3] = target: T1, eIF4E; experiment: Binding affinities to eIF4E using surface plasmon resonance (SPR); details: for koff: read-out: koff (s^−1)
Description: as §1, §2, §3, §4, §5, §6

HeLa Lysate = experiment: Cap competition assay in kinetic cell free in vitro translation (free cap analogs); type: biochemical; details: free cap analog 0-100 uM against Cap1-tipped eGFP modRNA, fluorescence plateau
Description: The in vitro translation assay was conducted with the HeLa 1-step coupled IVT kit (ThermoFisher Scientific, Waltham, Mass.) according to the manufacturer's instructions to assess performance of new cap analogs as free compounds or as an integral part of capped mRNA. Cap analogs with affinity to eIF4E protein may reduce protein synthesis rate in cell-free translation. Further, RNAs containing such cap analogs (“Cap-modRNA”) show different potency of protein synthesis in cell-free translation.
For competition assays, the total volume of the cell-free translation reaction was increased to 27.8 uL by addition of either water or diluted free CAP analogs in water. The stock concentration of the free CAP analogs was 1 mM. With two-fold dilutions in water, the concentration was reduced sequentially. […] The CAP analogs used in this study were either commercial products serving as reference material (TriLink, San Diego, Calif.) or compounds disclosed herein. It is hypothesized that the small molecule cap analogs interfere with the assembly of the “closed loop” in a Kd-dependent fashion.
After the fluorescent signal in cell-free translation reaction reached a stable plateau, absolute values thereof were transferred to a statistical analysis program (GraphPad Software, La Jolla, Calif.) and curve fitting or IC50 calculations were derived with settings according to the instructions of the manufacturer.
The results from the cap competition assays are illustrated in FIGS. 1A-1C and 2A-2D. In this study, each of the modRNAs used comprises 1-methyl-pseudouridine, which replaces each uridine in the RNA sequence and 5-methyl cytidine, which replaces each cytidine in the RNA sequence. Further, Table 11 includes the IC50 values of certain compounds of the disclosure.

T1 sequence (P06730 32-217): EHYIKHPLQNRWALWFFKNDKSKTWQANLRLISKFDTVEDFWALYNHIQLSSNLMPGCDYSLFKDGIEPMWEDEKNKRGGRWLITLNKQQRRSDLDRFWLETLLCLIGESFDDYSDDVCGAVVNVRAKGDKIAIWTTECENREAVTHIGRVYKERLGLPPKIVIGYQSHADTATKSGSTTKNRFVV

CO[C@@H]1[C@H](O)[C@@H](COP(=O)([O-])OP(=O)([O-])OP(=O)(O)OC[C@H]2O[C@@H](n3c[n+](C)c4c(=O)[nH]c(N)nc43)[C@H](O)[C@@H]2O)O[C@H]1n1c[n+](C)c2c(=O)[nH]c(N)nc21 [Compound 005-7]
Kd (eIF4E [1]): 2.7 µM
koff (eIF4E [2]): 0.26 s⁻¹

BP(=O)(OP(=O)([O-])OC[C@H]1O[C@@H](n2c[n+](C)c3c(=O)[nH]c(N)nc32)[C@H](O)[C@@H]1O)OP(=O)(O)OC[C@H]1O[C@@H](n2cnc3c(=O)[nH]c(N)nc32)[C@H](O)[C@@H]1O (stereo partly drawn) [Compound 005-32]
Kd (eIF4E [1]): 0.33 µM
τ (eIF4E [3]): 9.09 s
koff (eIF4E [3]): 0.11 s⁻¹

C[n+]1cn(C2CN(Cc3ccccc3)CC(COP(=O)(O)OP(=O)([O-])OP(=O)([O-])OC[C@H]3O[C@@H](n4c[n+](C)c5c(=O)[nH]c(N)nc54)[C@H](O)[C@@H]3O)O2)c2nc(N)[nH]c(=O)c21 (stereo partly drawn) [Compound 006-31]
Kd (eIF4E [1]): 2.4 µM
koff (eIF4E [2]): 0.33 s⁻¹

CO[C@@H]1[C@H](O)[C@@H](COP(=O)([O-])OP(=O)([O-])OC[C@H]2O[C@@H](n3c[n+](C)c4c(=O)[nH]c(N)nc43)[C@H](O)[C@@H]2O)O[C@H]1n1c[n+](C)c2c(=O)[nH]c(N)nc21 [Compound 005-8]
Kd (eIF4E [1]): 75 µM
koff (eIF4E [2]): 3.8 s⁻¹

C[n+]1cn([C@H]2CN(CCO)C[C@@H](COP(=O)([O-])OP(=O)(O)OP(=O)(O)OC[C@H]3O[C@@H](n4cnc5c(=O)[nH]c(N)nc54)[C@H](O)[C@@H]3O)O2)c2nc(N)[nH]c(=O)c21 [Compound 006-3]
Kd (eIF4E [1]): 8 to 9 µM and 9 µM
IC50 (HeLa Lysate): 33 µM
koff (eIF4E [2]): 0.6 s⁻¹

Cn1c[n+]([C@@H]2O[C@H](COP(=O)(O)OP(=O)([O-])OP(=O)(O)OC[C@H]3O[C@@H](n4cnc5c(=O)[nH]c(N)nc54)[C@H](O)[C@@H]3O)[C@@H](O)[C@H]2O)c2nc(N)[nH]c(=O)c21 [Cap0, m7GpppG, reference compound]
IC50 (HeLa Lysate): 35 µM

C[n+]1cn([C@@H]2O[C@H](COP(=O)(O)OP(=O)([O-])OP(=O)(O)OC[C@H]3O[C@@H](n4cnc5c(=O)[nH]c(N)nc54)[C@H](O)[C@@H]3O)[C@@H](O)[C@@H]2O)c2nc(N)[nH]c(=O)c21 [Compound 005-11]
IC50 (HeLa Lysate): 92 µM

CO[C@@H]1[C@H](O)[C@@H](COP(=O)(O)OP(=O)([O-])OP(=O)(O)OCC2CN(C)CC(n3c[n+](C)c4c(=O)[nH]c(N)nc43)O2)O[C@H]1n1cnc2c(=O)[nH]c(N)nc21 (stereo partly drawn) [Compound 006-39]
Kd (eIF4E [1]): 6.7 to 8.7 µM
koff (eIF4E [2]): 1.5 s⁻¹

COCCO[C@@H]1[C@H](O)[C@@H](COP(=O)(O)OP(=O)([O-])OP(=O)(O)OC[C@H]2O[C@@H](n3cnc4c(=O)[nH]c(N)nc43)[C@H](OC)[C@@H]2O)O[C@H]1n1c[n+](C)c2c(=O)[nH]c(N)nc21 [Compound 005-19]
Kd (eIF4E [1]): 4.2 µM
koff (eIF4E [2]): 0.94 s⁻¹

COCCO[C@H]1[C@H](O)[C@@H](COP(=O)(O)OP(=O)([O-])OP(=O)(O)OC[C@H]2O[C@@H](n3cnc4c(=O)[nH]c(N)nc43)[C@H](O)[C@@H]2O)O[C@H]1n1c[n+](C)c2c(=O)[nH]c(N)nc21 [Compound 005-12]
Kd (eIF4E [1]): 4.3 µM and 4 µM
IC50 (HeLa Lysate): 21 µM
koff (eIF4E [2]): 0.9 s⁻¹

C=CCn1c(=O)n([C@@H]2O[C@H](COP(=O)(O)OP(=O)(O)OP(=O)(O)OC[C@H]3O[C@@H](n4cnc5c(=O)[nH]c(N)nc54)[C@H](O)[C@@H]3O)[C@H]3OC(C)(C)O[C@@H]32)c2nc(N)[nH]c(=O)c21 [Compound 005-13]
Kd (eIF4E [1]): 218 µM
IC50 (HeLa Lysate): 318 µM

C[n+]1cn([C@@H]2O[C@H](COP(=O)(O)OP(=O)([O-])OP(=O)([O-])OP(=O)(O)OC[C@H]3O[C@@H](n4c[n+](C)c5c(=O)[nH]c(N)nc54)[C@H](O)[C@@H]3O)[C@@H](O)[C@H]2O)c2nc(N)[nH]c(=O)c21 [Compound 005-9]
Kd (eIF4E [1]): 1.1 µM and 1 µM
IC50 (HeLa Lysate): 9 µM
koff (eIF4E [2]): 0.41 s⁻¹

CO[C@@H]1[C@H](O)[C@@H](COP(=O)(O)OP(=O)([O-])OP(=O)(O)OC[C@H]2O[C@@H](n3cnc4c(=O)[nH]c(N)nc43)[C@H](O)[C@@H]2O)O[C@H]1n1c[n+](CCOc2ccc(Cl)cc2)c2c(=O)[nH]c(N)nc21 [Compound 005-5]
Kd (eIF4E [1]): 0.2 µM
IC50 (HeLa Lysate): 2 µM
koff (eIF4E [2]): 0.04 s⁻¹

C[n+]1cn([C@H]2C[C@H](O)[C@@H](COP(=O)(O)OP(=O)([O-])OP(=O)(O)OC[C@H]3O[C@@H](n4cnc5c(=O)[nH]c(N)nc54)[C@H](O)[C@@H]3O)O2)c2nc(N)[nH]c(=O)c21 [Compound 005-31]
Kd (eIF4E [1]): 3.58 µM

C[n+]1cn(C(CO)OC(CO)COP(=O)(O)OP(=O)(O)OP(=O)(O)OC[C@H]2O[C@@H](n3cnc4c(=O)[nH]c(N)nc43)[C@H](O)[C@@H]2O)c2nc(N)[nH]c(=O)c21 (stereo partly drawn) [Compound 006-36]
Kd (eIF4E [1]): 12 µM

CO[C@@H]1[C@H](O)[C@@H](COP(=O)(O)OP(=O)([O-])OP(=O)(O)OCC2O[C@@H](n3c[n+](C)c4c(=O)[nH]c(N)nc43)[C@](C)(O)[C@@H]2O)O[C@H]1n1cnc2c(=O)[nH]c(N)nc21 (stereo partly drawn) [Compound 007-38]
Kd (eIF4E [1]): 11 µM

C[n+]1cn([C@@H]2O[C@H](COP(=O)(O)OP(=O)(O)OP(=O)(O)OC[C@H]3O[C@@H](n4cnc5c(=O)[nH]c(N)nc54)[C@H](O)[C@@H]3O)[C@@H](O)[C@@]2(C)O)c2nc(N)[nH]c(=O)c21 [Compound 007-1]
Kd (eIF4E [1]): 11 µM
IC50 (HeLa Lysate): 179 µM
koff (eIF4E [2]): 1 s⁻¹

CO[C@@H]1[C@H](O)[C@@H](COP(=O)(O)OP(=O)([O-])OP(=O)([O-])OP(=O)(O)OC[C@H]2O[C@@H](n3c[n+](C)c4c(=O)[nH]c(N)nc43)[C@H](O)[C@@H]2O)O[C@H]1n1c[n+](C)c2c(=O)[nH]c(N)nc21 [Compound 005-6]
Kd (eIF4E [1]): 1.1 µM
koff (eIF4E [2]): 0.41 s⁻¹

BP(=O)(OP(=O)([O-])OC[C@H]1O[C@@H](n2c[n+](C)c3c(=O)[nH]c(N)nc32)[C@H](OC)[C@@H]1O)OP(=O)(O)OC[C@H]1O[C@@H](n2cnc3c(=O)[nH]c(N)nc32)[C@H](O)[C@@H]1O (stereo partly drawn) [Compound 005-3]
Kd (eIF4E [1]): 0.5 to 1.1 µM

BP(=O)(OP(=O)([O-])OC[C@H]1O[C@@H](n2cnc3c(=O)[nH]c(N)nc32)[C@H](O)[C@@H]1O)OP(=O)(O)OCC1CN(C)CC(n2c[n+](C)c3c(=O)[nH]c(N)nc32)O1 (stereo partly drawn) [Compound 006-30]
Kd (eIF4E [1]): 1.7 µM

C[n+]1cn([C@@H]2O[C@H](COP(=O)([O-])OCCOCCOP(=O)([O-])OC[C@H]3O[C@@H](n4c[n+](C)c5c(=O)[nH]c(N)nc54)[C@H](O)[C@@H]3O)[C@@H](O)[C@H]2O)c2nc(N)[nH]c(=O)c21 [Compound 008-2]
Kd (eIF4E [1]): 110 µM

Nc1nc2c(ncn2[C@@H]2O[C@H](COP(=O)(O)OP(=O)(O)OP(=O)(O)OC[C@H]3O[C@@H](c4cn(CCOc5ccc(Cl)cc5)c5c(=O)[nH]c(N)nc45)[C@H](O)[C@@H]3O)[C@@H](O)[C@H]2O)c(=O)[nH]1 [Compound 005-1]
IC50 (HeLa Lysate): 25 µM
koff (eIF4E [2]): 0.08 s⁻¹

CO[C@@H]1[C@H](O)[C@@H](COP(=O)(O)OP(=O)([O-])OP(=O)(O)OCC2CN(Cc3ccccc3)CC(n3c[n+](C)c4c(=O)[nH]c(N)nc43)O2)O[C@H]1n1cnc2c(=O)[nH]c(N)nc21 (stereo partly drawn) [Compound 006-40]
Kd (eIF4E [1]): 1.7 µM
koff (eIF4E [2]): 0.34 s⁻¹

C[C@@]1(O)[C@H](O)[C@@H](COP(=O)(O)OP(=O)(O)OP(=O)(O)OC[C@H]2O[C@@H](n3cnc4c(=O)[nH]c(N)nc43)[C@H](O)[C@@H]2O)O[C@H]1n1c[n+](CCOc2ccc(Cl)cc2)c2c(=O)[nH]c(N)nc21 [Compound 007-37]
Kd (eIF4E [1]): 0.1 µM
koff (eIF4E [2]): 0.057 s⁻¹

CO[C@@H]1[C@H](O)[C@@H](COP(=O)(O)OP(=O)([O-])OP(=O)(O)OC[C@H]2O[C@@H](n3cnc4c(=O)[nH]c(N)nc43)[C@H](O)[C@@H]2O)O[C@H]1n1c[n+](C)c2c(=O)[nH]c(N)nc21 [Compound 005-14]
Kd (eIF4E [1]): 6.4 µM and 4 µM
IC50 (HeLa Lysate): 48 µM
koff (eIF4E [2]): 1.7 s⁻¹

C[n+]1cn([C@@H]2O[C@H](COP(=O)(O)OCCN(CCOP(=O)(O)OC[C@H]3O[C@@H](n4c[n+](C)c5c(=O)[nH]c(N)nc54)[C@H](O)[C@@H]3O)C(=O)OC(C)(C)C)[C@@H](O)[C@H]2O)c2nc(N)[nH]c(=O)c21 [Compound 008-25]
Kd (eIF4E [1]): 300 µM

C[n+]1cn([C@@H]2O[C@H](COP(=O)([O-])OP(=O)([O-])OC[C@H]3O[C@@H](n4c[n+](C)c5c(=O)[nH]c(N)nc54)[C@H](O)[C@@H]3O)[C@@H](O)[C@H]2O)c2nc(N)[nH]c(=O)c21 [Compound 005-15]
Kd (eIF4E [1]): 75 µM
koff (eIF4E [2]): 3.8 s⁻¹

BP(=O)(OP(=O)([O-])OC[C@H]1O[C@@H](n2c[n+](CCOc3ccc(Cl)cc3)c3c(=O)[nH]c(N)nc32)[C@H](OC)[C@@H]1O)OP(=O)(O)OC[C@H]1O[C@@H](n2cnc3c(=O)[nH]c(N)nc32)[C@H](O)[C@@H]1O (stereo partly drawn) [Compound 005-2]
Kd (eIF4E [1]): 0.1 µM
τ (eIF4E [3]): 83.33 s
koff (eIF4E [3]): 0.012 s⁻¹

C#CCN1C[C@@H](COP(=O)([O-])OP(=O)(O)OP(=O)(O)OC[C@H]2O[C@@H](n3cnc4c(=O)[nH]c(N)nc43)[C@H](O)[C@@H]2O)O[C@@H](n2c[n+](C)c3c(=O)[nH]c(N)nc32)C1 [Compound 006-27]
Kd (eIF4E [1]): 9.1 µM
koff (eIF4E [2]): 1 s⁻¹

From patent US20190225644A1, “MRNA CAP ANALOGS AND METHODS OF MRNA CAPPING” (ModernaTX, Inc., priority 2015, published 2019)
